Measured values as given in patent US7863449B2, “Modulators of muscarinic receptors” (Vertex Pharmaceuticals Incorporated, priority 2004, dated 2011).
Where a name gives a salt, the structure may show the parent alone.

What was measured:
M1 muscarinic receptor = molecular target: T1, M1 muscarinic receptor (Homo sapiens, UniProt P11229); experiment: Functional mobilization of intracellular calcium (FLIPR), M1-CHO cells; assay type: cell-based; settings: for Emax: 100% efficacy is the maximum response obtained using Carbachol as a control; for M1 Activity: M1-CHO cells, FLIPR calcium mobilization
T1 construct: expressed in transfected cells; host or cells: CHO (M1-CHO)
T1 sequence (P11229 1-460): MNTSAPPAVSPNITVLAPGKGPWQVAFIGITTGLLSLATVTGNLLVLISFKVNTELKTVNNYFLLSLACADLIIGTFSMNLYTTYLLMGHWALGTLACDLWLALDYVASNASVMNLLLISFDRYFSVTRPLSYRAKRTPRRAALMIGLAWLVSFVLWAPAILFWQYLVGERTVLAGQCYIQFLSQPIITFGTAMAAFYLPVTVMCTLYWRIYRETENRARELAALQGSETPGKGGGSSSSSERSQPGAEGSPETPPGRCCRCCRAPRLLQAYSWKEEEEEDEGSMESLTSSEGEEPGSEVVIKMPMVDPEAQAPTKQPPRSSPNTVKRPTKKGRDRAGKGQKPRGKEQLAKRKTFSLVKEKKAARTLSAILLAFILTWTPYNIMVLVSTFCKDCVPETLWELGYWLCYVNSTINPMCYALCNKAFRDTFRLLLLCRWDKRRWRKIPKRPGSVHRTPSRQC
How it was run: (§1)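 Calcium flux recorded 60 s (ex 488, em 540 nm) in dye-loaded M1- or M4-CHO cells in pH 7.4 buffer with 1 mM probenecid. Inhibition measured against carbachol EC80 after 15 min compound pre-incubation or co-addition; agonism measured by compound addition alone. Final DMSO 0.5%.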

M4 muscarinic receptor = molecular target: T2, M4 muscarinic receptor (Homo sapiens, UniProt P08173); experiment: Functional mobilization of intracellular calcium (FLIPR), M4-CHO cells; assay type: cell-based; settings: for Emax: 100% efficacy is the maximum response obtained using Carbachol as a control; for M4 Activity: M4-CHO cells, FLIPR calcium mobilization
T2 construct: expressed in transfected cells; host or cells: CHO (M4-CHO)
T2 sequence (P08173 1-479): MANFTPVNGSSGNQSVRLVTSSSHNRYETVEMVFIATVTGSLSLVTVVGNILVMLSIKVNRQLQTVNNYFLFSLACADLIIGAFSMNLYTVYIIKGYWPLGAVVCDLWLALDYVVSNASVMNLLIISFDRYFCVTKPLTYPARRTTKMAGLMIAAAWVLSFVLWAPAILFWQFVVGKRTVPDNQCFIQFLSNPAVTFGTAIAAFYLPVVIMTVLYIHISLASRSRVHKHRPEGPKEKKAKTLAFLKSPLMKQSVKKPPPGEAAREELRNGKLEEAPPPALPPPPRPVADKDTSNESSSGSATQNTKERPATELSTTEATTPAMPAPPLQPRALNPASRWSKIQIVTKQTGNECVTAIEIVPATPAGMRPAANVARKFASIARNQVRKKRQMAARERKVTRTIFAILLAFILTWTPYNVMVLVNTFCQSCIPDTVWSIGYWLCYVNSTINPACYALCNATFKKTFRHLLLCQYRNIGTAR
How it was run: as §1

SMILES | Emax (M1 muscarinic receptor) [%] | M1 Activity (M1 muscarinic receptor) | Emax (M4 muscarinic receptor) [%] | M4 Activity (M4 muscarinic receptor)
CCOC(=O)N1CCC(N2CCC3(CC2)CN(S(=O)(=O)N(C)C)Cc2ccccc23)CC1 [compound 176] | 25 to 100 | +++ (activity was measured to be less than 1.0 μM) | 25 to 100 | +++ (activity was measured to be less than 1.0 μM)
CC(=O)N1Cc2ccccc2C2(CCN(C3CCN(C(=O)OC(C)(C)C)CC3)CC2)C1 [compound 177] | 25 to 100 | +++ (activity was measured to be less than 1.0 μM) | < 25 | + (activity was measured to be greater than 5.0 μM)
CCOC(=O)N1CCC(N2CCC3(CC2)CN(C(=O)C2(C)CCCCC2)Cc2ccccc23)CC1 [compound 178] | 25 to 100 | +++ (activity was measured to be less than 1.0 μM) | < 25 | + (activity was measured to be greater than 5.0 μM)
CCOC(=O)N1C2CCC1CC(N1CCC3(CC1)CN(C(=O)c1snnc1C)Cc1ccccc13)C2 (centres unmarked) [compound 179] | 25 to 100 | +++ (activity was measured to be less than 1.0 μM) | 25 to 100 | +++ (activity was measured to be less than 1.0 μM)
Cc1ccc2c(c1)C1(CCN(C3CCOCC3)CC1)OC2=O [compound 180] | 25 to 100 | + (activity was measured to be greater than 5.0 μM) | 25 to 100 | + (activity was measured to be greater than 5.0 μM)
CS(=O)(=O)N1Cc2ccccc2C2(CCN(C3CC4CCC(C3)N4C(=O)O[C@H]3CCOC3)CC2)C1 (some centres unmarked) [compound 181] | 25 to 100 | +++ (activity was measured to be less than 1.0 μM) | 25 to 100 | +++ (activity was measured to be less than 1.0 μM)
CC(=O)N1Cc2ccccc2C2(CCN(CC3CCOCC3)CC2)C1 [compound 182] | < 25 | + (activity was measured to be greater than 5.0 μM) | < 25 | + (activity was measured to be greater than 5.0 μM)
COCCOC(=O)N1C2CCC1CC(N1CCC3(CC1)CN(C(=O)OC)Cc1ccccc13)C2 (centres unmarked) [compound 183] | 25 to 100 | +++ (activity was measured to be less than 1.0 μM) | 25 to 100 | +++ (activity was measured to be less than 1.0 μM)
CCCC(=O)N1Cc2ccccc2C2(CCN(CC3CCN(C(=O)OCC)CC3)CC2)C1 [compound 184] | 25 to 100 | +++ (activity was measured to be less than 1.0 μM) | 25 to 100 | +++ (activity was measured to be less than 1.0 μM)
CCCC(=O)N1Cc2ccccc2C2(CCN(C3CCN(C(=O)OCC)CC3)CC2)C1 [compound 185] | 25 to 100 | +++ (activity was measured to be less than 1.0 μM) | 25 to 100 | +++ (activity was measured to be less than 1.0 μM)
CCOC(=O)N1CCC(N2CCC3(CC2)CN(C(=O)OCC(C)C)Cc2ccccc23)CC1 [compound 186] | 25 to 100 | +++ (activity was measured to be less than 1.0 μM) | 25 to 100 | +++ (activity was measured to be less than 1.0 μM)
CCC(=O)CN1CCC2(CC1)CN(C(C)=O)Cc1ccccc12 [compound 187] | < 25 | + (activity was measured to be greater than 5.0 μM) | < 25 | + (activity was measured to be greater than 5.0 μM)
CC(=O)Oc1cccc(CN2CCC3(CC2)CN(C(C)=O)Cc2ccccc23)c1 [compound 188] | < 25 | + (activity was measured to be greater than 5.0 μM) | < 25 | + (activity was measured to be greater than 5.0 μM)
CCCOC(=O)N1C2CCC1CC(N1CCC3(CC1)CN(C(=O)OC1CCC1)Cc1ccccc13)C2 (centres unmarked) [compound 189] | 25 to 100 | +++ (activity was measured to be less than 1.0 μM) | 25 to 100 | +++ (activity was measured to be less than 1.0 μM)
CCOC(=O)N1C2CCC1CC(N1CCC3(CC1)CN(C(=O)C(O)(CC)CC)Cc1ccccc13)C2 (centres unmarked) [compound 190] | 25 to 100 | +++ (activity was measured to be less than 1.0 μM) | 25 to 100 | +++ (activity was measured to be less than 1.0 μM)
CC(=O)N1Cc2ccccc2C2(CCN(Cc3cc4ccccc4s3)CC2)C1 [compound 191] | < 25 | + (activity was measured to be greater than 5.0 μM) | < 25 | + (activity was measured to be greater than 5.0 μM)
COc1cccc(OC)c1CN1CCC2(CC1)CN(C(C)=O)Cc1ccccc12 [compound 192] | 25 to 100 | + (activity was measured to be greater than 5.0 μM) | 25 to 100 | + (activity was measured to be greater than 5.0 μM)
CCOC(=O)N1C2CCC1CC(N1CCC3(CC1)CN(C(=O)C1CCCCC1)Cc1ccccc13)C2 (centres unmarked) [compound 193] | 25 to 100 | +++ (activity was measured to be less than 1.0 μM) | < 25 | +++ (activity was measured to be less than 1.0 μM)
O=C(OC1CCC1)N1Cc2ccccc2C2(CCN(C3CC4CCC(C3)N4C(=O)OC3CCC3)CC2)C1 (centres unmarked) [compound 194] | 25 to 100 | +++ (activity was measured to be less than 1.0 μM) | 25 to 100 | +++ (activity was measured to be less than 1.0 μM)
CC(C)OC(=O)N1Cc2ccccc2C2(CCN(C3CC4CCC(C3)N4C(=O)O[C@@H]3CCOC3)CC2)C1 (some centres unmarked) [compound 195] | 25 to 100 | +++ (activity was measured to be less than 1.0 μM) | 25 to 100 | +++ (activity was measured to be less than 1.0 μM)
CCON=C1CCC(N2CCC3(CC2)CN(C(C)=O)Cc2ccccc23)CC1 (centres unmarked) [compound 196, 1-(1′-(4-(ethoxyimino)cyclohexyl)-1H-spiro[isoquinoline-4,4′-piperidine]-2(3H)-yl)ethanone] | 25 to 100 | +++ (activity was measured to be less than 1.0 μM) | 25 to 100 | +++ (activity was measured to be less than 1.0 μM)
CCOC(=O)N1C2CCC1CC(N1CCC3(CC1)CN(C(C)=O)Cc1ccccc13)C2 (centres unmarked) [compound 197, ethyl 3-(2-acetyl-2,3-dihydro-1H-spiro[isoquinoline-4,4′-piperidine]-1′-yl)-8-azabicyclo[3.2.1]octane-8-carboxylate] | 25 to 100 | +++ (activity was measured to be less than 1.0 μM) | 25 to 100 | +++ (activity was measured to be less than 1.0 μM)
CCOC(=O)N1CCC(CN2CCC3(CC2)CN(C(C)=O)Cc2ccccc23)CC1 [compound 198, Ethyl 4-((2-acetyl-2,3-dihydro-1H-spiro[isoquinoline-4,4′-piperidine]-1′-yl)methyl)piperidine-1-carboxylate hydrochloride] | 25 to 100 | +++ (activity was measured to be less than 1.0 μM) | 25 to 100 | +++ (activity was measured to be less than 1.0 μM)
